Experimental data from ChEMBL document CHEMBL3885861, “Open TG-GATES”.

Species on record: Rattus norvegicus
Test: Open TG-GATES - Regimen: Daily Repeat
Type: toxicity, organism-based, Sprague-Dawley
Design: regimen Daily Repeat, gender Male, age 6 weeks
Details: in vivo, po, 10 mg/kg, route gavage, dose level Middle; for APTT / Bas / Eos / Fbg / Hb / Ht / Lym / MCH / MCHC / MCV / Mono / Neu / PT / Plat / RBC / Ret / WBC: tissue Blood; for KIDNEY_L / KIDNEY_R / KIDNEY_TOTAL: tissue Kidney; for LIVER: tissue Liver; for A/G / ALP / ALT / AST / BUN / CRE / Ca / Cl / DBIL / GLC / IP / K / LDH / Na / PL / RALB / TBIL / TC / TG / TP / gamma-GTP: tissue Plasma

`Cn1cnc([N+](=O)[O-])c1Sc1ncnc2nc[nH]c12` [AZATHIOPRINE] showed a TERMINAL_BW (72 h, time 3 day) of 204.1 g, an APTT (72 h, time 3 day) of 20.4 s and a Bas (72 h, time 3 day) of 0%. It also gave an Eos (72 h, time 3 day) of 0.8%, a Fbg (72 h, time 3 day) of 324.8 mg/dL and a Hb (72 h, time 3 day) of 13.4 g/dL. The Ht (72 h, time 3 day) was 39.3%, the Lym (72 h, time 3 day) was 83.6% and the MCH (72 h, time 3 day) was 21.4 pg. The MCHC (72 h, time 3 day) was 33.9%, the MCV (72 h, time 3 day) was 62.9 fL and the Mono (72 h, time 3 day) was 2%. It also gave a Neu (72 h, time 3 day) of 12.4%, a PT (72 h, time 3 day) of 15.7 s and a Plat (72 h, time 3 day) of 125.8 x10_4/uL. It also gave an RBC (72 h, time 3 day) of 625.6 x10_4/ul, a Ret (72 h, time 3 day) of 5.2% and a WBC (72 h, time 3 day) of 72.4 x10_2/uL. For the same compound, the KIDNEY_L (72 h, time 3 day) was 0.9 g, the KIDNEY_R (72 h, time 3 day) was 0.9 g and the KIDNEY_TOTAL (72 h, time 3 day) was 1.9 g. It also gave an LIVER (72 h, time 3 day) of 9.8 g, an A/G (72 h, time 3 day) of 1.2 and an ALP (72 h, time 3 day) of 1704 IU/L. The ALT (72 h, time 3 day) was 41.4 IU/L, the AST (72 h, time 3 day) was 73 IU/L and the BUN (72 h, time 3 day) was 16.2 mg/dL. It also gave a CRE (72 h, time 3 day) of 0.1 mg/dL, a Ca (72 h, time 3 day) of 11.2 mg/dL and a Cl (72 h, time 3 day) of 106.2 meq/L. The DBIL (72 h, time 3 day) was 0 mg/dL, the GLC (72 h, time 3 day) was 184.8 mg/dL and the IP (72 h, time 3 day) was 7.2 mg/dL. For the same compound, the K (72 h, time 3 day) was 4.2 meq/L, the LDH (72 h, time 3 day) was 196.8 IU/L and the Na (72 h, time 3 day) was 143 meq/L. It also gave a PL (72 h, time 3 day) of 148.2 mg/dL, an RALB (72 h, time 3 day) of 3.1 g/dL and a TBIL (72 h, time 3 day) of 0.014 mg/dL. It also gave a TC (72 h, time 3 day) of 77.4 mg/dL, a TG (72 h, time 3 day) of 85.2 mg/dL and a TP (72 h, time 3 day) of 5.7 g/dL. It also gave a gamma-GTP (72 h, time 3 day) of 1 IU/L, a TERMINAL_BW ([…], time 7 day) of 234.4 g and a TERMINAL_BW ([…], time 14 day) of 294.1 g. For the same compound, the TERMINAL_BW ([…], time 28 day) was 329.3 g, the APTT ([…], time 7 day) was 22.4 s and the Bas ([…], time 7 day) was 0%. The Eos ([…], time 7 day) was 1%, the Fbg ([…], time 7 day) was 325.8 mg/dL and the Hb ([…], time 7 day) was 13.7 g/dL. For the same compound, the Ht ([…], time 7 day) was 39%, the Lym ([…], time 7 day) was 83% and the MCH ([…], time 7 day) was 21.5 pg. The MCHC ([…], time 7 day) was 35.1%, the MCV ([…], time 7 day) was 61.5 fL and the Mono ([…], time 7 day) was 2.4%. It also gave a Neu ([…], time 7 day) of 12.4%, a PT ([…], time 7 day) of 15.4 s and a Plat ([…], time 7 day) of 143.7 x10_4/uL. For the same compound, the RBC ([…], time 7 day) was 635 x10_4/ul, the Ret ([…], time 7 day) was 6.2% and the WBC ([…], time 7 day) was 81.7 x10_2/uL. The APTT ([…], time 14 day) was 21.7 s, the Bas ([…], time 14 day) was 0% and the Eos ([…], time 14 day) was 0.6%. The Fbg ([…], time 14 day) was 333 mg/dL, the Hb ([…], time 14 day) was 14 g/dL and the Ht ([…], time 14 day) was 40.1%. The Lym ([…], time 14 day) was 81.4%, the MCH ([…], time 14 day) was 21.1 pg and the MCHC ([…], time 14 day) was 35%. For the same compound, the MCV ([…], time 14 day) was 60.3 fL, the Mono ([…], time 14 day) was 1.6% and the Neu ([…], time 14 day) was 14.8%. The PT ([…], time 14 day) was 15.6 s, the Plat ([…], time 14 day) was 116.8 x10_4/uL and the RBC ([…], time 14 day) was 664.6 x10_4/ul. For the same compound, the Ret ([…], time 14 day) was 4.2%, the WBC ([…], time 14 day) was 93.4 x10_2/uL and the APTT ([…], time 28 day) was 22.4 s. For the same compound, the Bas ([…], time 28 day) was 0%, the Eos ([…], time 28 day) was 1.4% and the Fbg ([…], time 28 day) was 347.6 mg/dL. For the same compound, the Hb ([…], time 28 day) was 11.8 g/dL, the Ht ([…], time 28 day) was 34.5% and the Lym ([…], time 28 day) was 74%. For the same compound, the MCH ([…], time 28 day) was 19.3 pg, the MCHC ([…], time 28 day) was 33.9% and the MCV ([…], time 28 day) was 56.9 fL. For the same compound, the Mono ([…], time 28 day) was 3.2%, the Neu ([…], time 28 day) was 19.4% and the PT ([…], time 28 day) was 16.5 s. The Plat ([…], time 28 day) was 95.9 x10_4/uL, the RBC ([…], time 28 day) was 615.2 x10_4/ul and the Ret ([…], time 28 day) was 2.4%. The WBC ([…], time 28 day) was 54.1 x10_2/uL, the KIDNEY_L ([…], time 7 day) was 1 g and the KIDNEY_R ([…], time 7 day) was 1 g. For the same compound, the KIDNEY_TOTAL ([…], time 7 day) was 2 g, the KIDNEY_L ([…], time 14 day) was 1.1 g and the KIDNEY_R ([…], time 14 day) was 1.2 g. The KIDNEY_TOTAL ([…], time 14 day) was 2.3 g, the KIDNEY_L ([…], time 28 day) was 1.3 g and the KIDNEY_R ([…], time 28 day) was 1.3 g. It also gave a KIDNEY_TOTAL ([…], time 28 day) of 2.6 g, an LIVER ([…], time 7 day) of 11.1 g and an LIVER ([…], time 14 day) of 13.4 g. The LIVER ([…], time 28 day) was 13.3 g, the A/G ([…], time 7 day) was 1.1 and the ALP ([…], time 7 day) was 1444.2 IU/L. The ALT ([…], time 7 day) was 37.8 IU/L, the AST ([…], time 7 day) was 69.8 IU/L and the BUN ([…], time 7 day) was 18.2 mg/dL. For the same compound, the CRE ([…], time 7 day) was 0.1 mg/dL, the Ca ([…], time 7 day) was 10.7 mg/dL and the Cl ([…], time 7 day) was 105.8 meq/L. For the same compound, the DBIL ([…], time 7 day) was 0 mg/dL, the GLC ([…], time 7 day) was 193.2 mg/dL and the IP ([…], time 7 day) was 6.8 mg/dL. It also gave a K ([…], time 7 day) of 4.2 meq/L, an LDH ([…], time 7 day) of 265.2 IU/L and a Na ([…], time 7 day) of 142.8 meq/L. The PL ([…], time 7 day) was 166.4 mg/dL, the RALB ([…], time 7 day) was 3.1 g/dL and the TBIL ([…], time 7 day) was 0 mg/dL. The TC ([…], time 7 day) was 89.4 mg/dL, the TG ([…], time 7 day) was 104.6 mg/dL and the TP ([…], time 7 day) was 6 g/dL. It also gave a gamma-GTP ([…], time 7 day) of 1 IU/L, an A/G ([…], time 14 day) of 1.1 and an ALP ([…], time 14 day) of 1327.6 IU/L. For the same compound, the ALT ([…], time 14 day) was 33.4 IU/L, the AST ([…], time 14 day) was 62.8 IU/L and the BUN ([…], time 14 day) was 17.8 mg/dL. For the same compound, the CRE ([…], time 14 day) was 0.2 mg/dL, the Ca ([…], time 14 day) was 11.3 mg/dL and the Cl ([…], time 14 day) was 105.2 meq/L. For the same compound, the DBIL ([…], time 14 day) was 0 mg/dL, the GLC ([…], time 14 day) was 200.2 mg/dL and the IP ([…], time 14 day) was 6.8 mg/dL. It also gave a K ([…], time 14 day) of 4 meq/L, an LDH ([…], time 14 day) of 161 IU/L and a Na ([…], time 14 day) of 143 meq/L. The PL ([…], time 14 day) was 174.4 mg/dL, the RALB ([…], time 14 day) was 3.2 g/dL and the TBIL ([…], time 14 day) was 0.006 mg/dL. For the same compound, the TC ([…], time 14 day) was 93.8 mg/dL, the TG ([…], time 14 day) was 93.4 mg/dL and the TP ([…], time 14 day) was 6.2 g/dL. It also gave a gamma-GTP ([…], time 14 day) of 1.8 IU/L, an A/G ([…], time 28 day) of 1.1 and an ALP ([…], time 28 day) of 971.6 IU/L. For the same compound, the ALT ([…], time 28 day) was 82 IU/L, the AST ([…], time 28 day) was 182.8 IU/L and the BUN ([…], time 28 day) was 20.8 mg/dL. The CRE ([…], time 28 day) was 0.2 mg/dL, the Ca ([…], time 28 day) was 10.7 mg/dL and the Cl ([…], time 28 day) was 107 meq/L. It also gave a DBIL ([…], time 28 day) of 0.034 mg/dL, a GLC ([…], time 28 day) of 169.4 mg/dL and an IP ([…], time 28 day) of 6.3 mg/dL. For the same compound, the K ([…], time 28 day) was 3.9 meq/L, the LDH ([…], time 28 day) was 602 IU/L and the Na ([…], time 28 day) was 141.4 meq/L. The PL ([…], time 28 day) was 169.6 mg/dL, the RALB ([…], time 28 day) was 3.3 g/dL and the TBIL ([…], time 28 day) was 0.066 mg/dL. It also gave a TC ([…], time 28 day) of 102 mg/dL, a TG ([…], time 28 day) of 63.4 mg/dL and a TP ([…], time 28 day) of 6.4 g/dL. For the same compound, the gamma-GTP ([…], time 28 day) was 1.2 IU/L.
